Measured values as given in US12564595B2, “Prophylactic and therapeutic pharmaceutical agent for HIV infectious diseases characterized by comprising combination of integrase inhibitor and anti-HIV agent” (Shionogi & Co., Ltd., priority 2019, dated 2026).

Columns and labels:
[1] = system: HIV mutant strain 1 (E138K/G140S/Q148H/N155H); experiment: Test Example 2: resistance evaluation test (HeLa-CD4 reporter), mutant strain 1; format: cell-based; details: FC=EC50 of mutant strain/EC50 of wild strain; HeLa-CD4 cells
Procedure, shortened: (§1)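 HeLa-CD4 reporter cells were infected with wild-type or mutant HIV in the presence of serially diluted compound and cultured 3 days. Cell lysates were read by chemiluminescent reporter assay after about 1 h at room temperature. Fold change was calculated as mutant EC50 divided by wild-type EC50.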

[2] = target: T1, voltage-gated sodium channel (Nav 1.5 channel) (Homo sapiens, UniProt Q14524); experiment: Test Example 14: Nav test (patch clamp, HEK cells); format: cell-based; details: HEK cells expressing Nav 1.5 channel, whole cell patch clamp
T1 construct: expressed in transfected cells; host or cells: HEK cells
T1 sequence (Q14524 whole entry): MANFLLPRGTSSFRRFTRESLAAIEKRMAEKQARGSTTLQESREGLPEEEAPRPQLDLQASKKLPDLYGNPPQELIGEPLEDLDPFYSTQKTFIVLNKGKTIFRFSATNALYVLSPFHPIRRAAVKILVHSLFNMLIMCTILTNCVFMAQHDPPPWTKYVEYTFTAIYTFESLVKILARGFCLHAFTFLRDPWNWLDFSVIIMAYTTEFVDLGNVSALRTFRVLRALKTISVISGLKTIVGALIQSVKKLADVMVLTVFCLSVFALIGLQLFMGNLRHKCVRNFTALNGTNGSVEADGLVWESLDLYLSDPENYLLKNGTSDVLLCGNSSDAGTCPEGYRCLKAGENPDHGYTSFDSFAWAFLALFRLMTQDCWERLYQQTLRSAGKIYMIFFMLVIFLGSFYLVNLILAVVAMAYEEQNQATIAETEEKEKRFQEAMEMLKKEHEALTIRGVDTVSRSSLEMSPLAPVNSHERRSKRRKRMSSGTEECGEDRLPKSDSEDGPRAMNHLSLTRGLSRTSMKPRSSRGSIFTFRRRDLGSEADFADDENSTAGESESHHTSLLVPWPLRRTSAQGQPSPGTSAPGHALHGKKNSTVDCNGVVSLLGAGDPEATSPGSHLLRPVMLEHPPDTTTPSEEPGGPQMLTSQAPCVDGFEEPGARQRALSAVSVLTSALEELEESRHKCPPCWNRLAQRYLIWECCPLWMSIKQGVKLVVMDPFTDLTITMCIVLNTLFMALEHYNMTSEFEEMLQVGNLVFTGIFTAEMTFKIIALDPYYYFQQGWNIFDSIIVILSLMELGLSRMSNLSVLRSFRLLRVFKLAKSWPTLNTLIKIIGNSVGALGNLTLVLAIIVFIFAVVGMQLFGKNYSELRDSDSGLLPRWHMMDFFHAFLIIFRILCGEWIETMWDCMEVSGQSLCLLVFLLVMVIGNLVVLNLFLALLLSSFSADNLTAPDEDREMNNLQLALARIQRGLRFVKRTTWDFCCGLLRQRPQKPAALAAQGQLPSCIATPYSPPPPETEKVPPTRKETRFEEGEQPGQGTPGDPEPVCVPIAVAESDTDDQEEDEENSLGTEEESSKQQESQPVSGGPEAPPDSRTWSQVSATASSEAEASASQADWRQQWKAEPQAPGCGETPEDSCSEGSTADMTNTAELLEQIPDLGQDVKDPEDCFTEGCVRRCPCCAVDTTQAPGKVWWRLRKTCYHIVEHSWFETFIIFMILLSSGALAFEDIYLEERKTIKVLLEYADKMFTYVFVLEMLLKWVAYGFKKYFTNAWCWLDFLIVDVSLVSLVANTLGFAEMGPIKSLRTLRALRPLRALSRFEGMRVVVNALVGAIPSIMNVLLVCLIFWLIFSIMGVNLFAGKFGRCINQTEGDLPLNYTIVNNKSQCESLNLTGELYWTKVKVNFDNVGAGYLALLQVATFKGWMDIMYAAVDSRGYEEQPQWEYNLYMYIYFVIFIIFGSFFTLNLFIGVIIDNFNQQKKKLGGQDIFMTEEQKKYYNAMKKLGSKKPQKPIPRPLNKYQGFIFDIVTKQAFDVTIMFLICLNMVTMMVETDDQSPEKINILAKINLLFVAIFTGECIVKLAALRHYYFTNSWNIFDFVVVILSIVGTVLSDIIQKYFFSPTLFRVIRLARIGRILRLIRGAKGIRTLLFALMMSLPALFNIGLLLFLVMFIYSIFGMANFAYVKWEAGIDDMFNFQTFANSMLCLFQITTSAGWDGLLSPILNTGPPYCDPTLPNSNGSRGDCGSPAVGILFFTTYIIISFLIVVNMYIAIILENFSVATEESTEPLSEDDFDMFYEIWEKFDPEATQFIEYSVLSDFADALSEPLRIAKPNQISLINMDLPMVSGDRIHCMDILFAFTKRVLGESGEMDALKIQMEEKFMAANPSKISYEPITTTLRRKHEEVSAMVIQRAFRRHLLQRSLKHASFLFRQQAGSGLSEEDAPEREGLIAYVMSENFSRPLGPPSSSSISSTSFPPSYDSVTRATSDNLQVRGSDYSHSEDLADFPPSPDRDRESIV
Description: Using a fully automatic patch clamp system (QPatch: Sophion Bioscience A/S), by the whole cell patch clamp method, the cells were maintained at a membrane potential of −100 mV and the induced INa when a −10 mV depolarization stimulus was applied for 20 msec was recorded. […] From the INa obtained, using analysis software (QPatch: Sophion Bioscience A/S), the absolute value of the maximum peak current was measured, with reference to the current value at the maintained membrane potential.

[3] = Test Example 8: metabolic stability test; format: in vitro ADME, human
Procedure, shortened: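 Pooled human liver microsomes (0.5 mg protein/mL, Tris-HCl pH 7.4) incubated with compound and 1 mmol/L NADPH for 0 or 30 min at 37° C. After methanol/acetonitrile quench, remaining parent was quantified by LC/MS/MS or SPE/MS and expressed as % of the 0 min amount.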

[4] = system: HIV; experiment: microbe, parasite or virus in culture; format: cell-based; details: Human immunodeficiency virus 1, MT4, 96 h, read-out: EC50 (50% HIV inhibition concentration), MT-4 cells, HIV, cultured four days, MTT; compounds of formula (I) of (A)
Description: A serial dilution series of test samples was prepared in 96-well microplates (50 μL/well).
100 μL/well in each case were dispensed onto plates having test samples of 2.5×10^5/mL MT-4 cell suspension, and HIV virus solution was then dispensed thereto in the amount of 50 μL/well. Mixing was performed using a plate mixer and culturing was performed for four days in a CO2 incubator. MTT (3-(4,5-dimethylthiazol-2-yl)-2,5-diphenyltetrazolium bromide) liquid was dispensed into each well in the amount of 30 μL in each case. The reaction was conducted for 1 h in a CO2 incubator. 150 μL of supernatant were removed from each well, taking care not to aspirate any cells. 150 μL of cell solution were added, and thorough mixing was performed with a plate mixer until all the cells had been dissolved. The optical absorbance of the mixed plates was measured at two wavelengths: 560 nm/690 nm, with a microplate reader.

[5] = system: HIV mutant strain 2 (E92Q/E138T/G140S/Q148H); experiment: Test Example 2: resistance evaluation test (HeLa-CD4 reporter), mutant strain 2; format: cell-based; details: FC=EC50 of mutant strain/EC50 of wild strain; HeLa-CD4 cells
Procedure, shortened: as §1

[6] = system: HIV; experiment: Test Example 3: test for confirmation of combined use effect; format: cell-based; design: key to D value (dosewise additivity value): <-0.1 synergy, -0.1 to 0.1 additive, >0.1 antagonism
Source text: The two compounds in respect of which the effect of combined use was desired to be examined were mixed in various ratios, and the anti-HIV activity (50% HIV inhibiting concentration) for each combination was found by the method of test example 1. […] A brief description of the method of calculating the D value is given below.
The D value that is found by evaluating the anti-HIV activity of respective combinations of M concentrations of compound X1 and N concentrations of compound X2 is calculated by the following mathematical expression 1.
The effect of combined use was evaluated in terms of the D value in accordance with the following criteria • −0.5 to −0.2: strong synergetic effect • −0.2 to −0.1: weak synergetic effect • […]: additive synergetic effect • 0.1 to 0.2: weak antagonism • 0.2 to 0.5: strong antagonism

[7] = pooled human liver microsomes, 30 min at 37° C., NADPH, compound concentration 0.5 μmol/L
[8] = combination with compound (B) Compound C (CAI)
[9] = combination with compound (B) Darunavin (PI)
[10] = combination with compound (B) Darunavir (PI)
[11] = combination with compound (B) GS-6207 (CAI)
[12] = combination with compound (B) GSK2838232 (maturation inhibitor)
[13] = combination with compound (B) Lilpiperine (polymerase inhibitor)
[14] = combination with compound (B) Ramipzin (3TC) (polymerase inhibitor)
[15] = combination with compound (B) Rilpivirine (polymerase inhibitor)

Row | SMILES | FC in respect of mutant strain 1 (E138K/G140S/Q148H/N155H) [1] | ratio of maximum peak current (INa) on application of compound to that on application of medium [2] [%] | Remaining percentage [3, 7] [%] | EC50 [4] [nM] | FC in respect of mutant strain 2 (E92Q/E138T/G140S/Q148H) [5] | other results
1 | CCN1C(=O)c2c(O)c(=O)c(-c3nnc(Cc4cc(F)c(F)cc4F)s3)cn2N2CCCC[C@@H]12 [Compound I-022] | 23 | 97.1 | 72.2 | 4.8 | 46 | –
2 | CCN1C(=O)c2c(O)c(=O)c(C(=O)NCc3cccc(Cl)c3F)cn2N2[C@H]3COCC3C[C@@H]12 (some centres unmarked) [II-052] | 22 | – | – | 0.27 | 16 | D value (dosewise additivity value) [6, 8]: 0.038; effect of combined use [6, 8]: Additive (−0.1 to −0.1: additive synergetic effect); D value (dosewise additivity value) [6, 9]: −0.076; effect of combined use [6, 10]: Additive (−0.1 to −0.1: additive synergetic effect); D value (dosewise additivity value) [6, 11]: −0.003; effect of combined use [6, 11]: Additive (−0.1 to −0.1: additive synergetic effect); D value (dosewise additivity value) [6, 12]: −0.009; effect of combined use [6, 12]: Additive (−0.1 to −0.1: additive synergetic effect); effect of combined use [6, 13]: Additive (−0.1 to −0.1: additive synergetic effect); D value (dosewise additivity value) [6, 14]: −0.156; effect of combined use [6, 14]: Weak synergy (−0.2 to −0.1: weak synergetic effect); D value (dosewise additivity value) [6, 15]: −0.020; Remaining percentage ([3]; human, microsomes, 0.5 h, 0.5 μmol/L, pH 7.4): 61.6%
3 | CN1C(=O)c2c(O)c(=O)c(-c3nnc(Cc4ccc(F)cc4F)s3)cn2N2CCCC[C@@H]12 [II-098] | 8.8 | 96.7 | 109 | 0.62 | 12 | –
4 | CCN1C(=O)c2c(O)c(=O)c(-c3nnc(Cc4c(F)cc(F)cc4F)s3)cn2N2CCOC[C@@H]12 [II-106] | 15 | 109 | 95.3 | 0.52 | 20 | –
5 | CCN1C(=O)c2c(O)c(=O)c(-c3nnc(Cc4ccc(F)cc4F)s3)cn2N2[C@H](COC)CC[C@@H]12 [II-110] | 8.2 | 89.3 | 96.5 | 0.13 | 11 | D value (dosewise additivity value) [6, 8]: 0.075; effect of combined use [6, 8]: Additive (−0.1 to −0.1: additive synergetic effect); D value (dosewise additivity value) [6, 9]: −0.058; effect of combined use [6, 10]: Additive (−0.1 to −0.1: additive synergetic effect); D value (dosewise additivity value) [6, 11]: 0.025; effect of combined use [6, 11]: Additive (−0.1 to −0.1: additive synergetic effect); D value (dosewise additivity value) [6, 12]: −0.048; effect of combined use [6, 12]: Additive (−0.1 to −0.1: additive synergetic effect); effect of combined use [6, 13]: Additive (−0.1 to −0.1: additive synergetic effect); D value (dosewise additivity value) [6, 14]: −0.145; effect of combined use [6, 14]: Weak synergy (−0.2 to −0.1: weak synergetic effect); D value (dosewise additivity value) [6, 15]: −0.073
6 | CCN1C(=O)c2c(O)c(=O)c(-c3nnc(Cc4c(F)cc(F)cc4F)s3)cn2N2[C@H](COC)CC[C@@H]12 [II-117] | 10 | 88.8 | 93.4 | 0.62 | 11 | –
7 | CCN1C(=O)c2c(O)c(=O)c(-c3nnc(Cc4ccc(F)cc4)s3)cn2N2[C@H](COC)CC[C@@H]12 [II-118] | 20 | 86.2 | 92.4 | 0.96 | 31 | –
8 | C[C@H]1CC[C@H]2N(C)C(=O)c3c(O)c(=O)c(-c4nnc(Cc5ccc(F)cc5F)s4)cn3N2C1 [II-120] | 5.8 | 78.8 | 95.5 | 0.25 | 8 | –
9 | CCN1C(=O)c2c(O)c(=O)c(-c3nnc(Cc4c(F)cc(F)cc4F)s3)cn2N2C[C@@H]3CC[C@@H](C3)[C@@H]12 [II-131] | 2.3 | – | 83.4 | 0.66 | 3.5 | –
10 | CN1C(=O)c2c(O)c(=O)c(-c3nnc(Cc4ccc(F)cc4F)s3)cn2N2C[C@@H]3CC[C@@H](C3)[C@@H]12 [II-138] | 15 | – | 93.9 | 0.14 | 11 | –
11 | CCN1C(=O)c2c(O)c(=O)c(-c3nnc(Cc4c(F)cc(F)cc4F)s3)cn2N2CC[C@@H](C)C[C@@H]12 [II-143] | 3 | – | 82.5 | 1.7 | 3.6 | –
12 | C[C@@H]1CCN2[C@@H](C1)N(C)C(=O)c1c(O)c(=O)c(-c3nnc(Cc4c(F)cc(F)cc4F)s3)cn12 [II-144] | 6.1 | – | 94.2 | 0.69 | 6.1 | –
13 | CCN1C(=O)c2c(O)c(=O)c(-c3nnc(Cc4c(F)cc(F)cc4F)s3)cn2N2CC[C@H](C)C[C@@H]12 [II-147] | 5.1 | – | 91.5 | 1.8 | 7.3 | –
14 | CCN1C(=O)c2c(O)c(=O)c(-c3nnc(Cc4cc(F)c(F)cc4F)s3)cn2N2C[C@@H]3CC[C@@H](C3)[C@@H]12 [II-148] | 8.3 | – | 71.7 | 5.2 | 6.6 | –
15 | CN1C(=O)c2c(O)c(=O)c(-c3nnc(Cc4c(F)cc(F)cc4F)s3)cn2N2C[C@@H]3CC[C@@H](C3)[C@@H]12 [II-149] | 14 | – | 96.5 | 0.6 | 12 | –
16 | COC[C@@H]1CC[C@H]2N(C)C(=O)c3c(O)c(=O)c(-c4nnc(Cc5c(F)cc(F)cc5F)s4)cn3N12 [II-151] | 27 | – | 94.6 | 0.37 | 17 | –
17 | CCN1C(=O)c2c(O)c(=O)c(-c3nnc(Cc4ccc(F)cc4F)s3)cn2N2C[C@@H](C)CC[C@@H]12 [II-155] | 5.2 | – | 93 | 0.3 | 5.1 | –
18 | CCN1C(=O)c2c(O)c(=O)c(-c3nnc(Cc4c(F)cc(F)cc4F)s3)cn2N2C[C@@H](C)CC[C@@H]12 [II-156] | 3.5 | – | 91.3 | 1.2 | 4.6 | –
19 | COC[C@@H]1CC[C@H]2N(C)C(=O)c3c(O)c(=O)c(C(=O)NCc4c(F)cc(F)cc4F)cn3N12 [II-157] | 53 | – | 90 | 0.7 | 24 | –
